The values below come from PubChem BioAssay (NCI).

Structures are written as SMILES.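 A five-concentration, 48-hour dose response in 96-well plates underlies each endpoint, interpolated linearly between surrounding concentrations. TGI marks complete inhibition of growth.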

What all share (test): inhibition of tumour cell growth, NCI panel, 48 h
The subject of assay [1] is CAKI-1 renal.
Assay [2] deals with UACC-257 melanoma.
The subject of assay [3] is SK-OV-3 ovarian.
The subject of assay [4] is SF-268 CNS.
The subject of assay [5] is PC-3 prostate.
Assay [6] deals with TK-10 renal.
Assay [7] has as its system HCC-2998 colon.
The test system of assay [8] is MDA-N.
In assay [9] the test system is NCI-H522 lung.
Assay [10] concerns SR leukemia.

As to `O=C(c1ccc(Cl)cc1)N(C(=S)OCCOc1ccccc1)c1ccccc1`, the TGI was 41.2 µM in assay [1]; 39.5 µM in assay [2]; above 100 µM in assay [3]; 60.4 µM in [4]; 56.7 µM in [5]; above 100 µM in [6]. The figures for the TGI in assay [7], in [8] and in [9] were 35.2 µM, 33.3 µM and 43.7 µM, respectively.

In the case of `CC1=C(C)SC(=C2Sc3nc(O)[nH]c(=O)c3S2)S1`, the TGI is above 100 µM in assay [1]; above 100 µM in [2]; above 100 µM in [3]; 79.9 µM in [10]; above 100 µM in assay [4]; above 100 µM in [5]. The TGI in [6], in assay [7] and in assay [9] was above 100 µM each time.

For the compound `Cc1cccc(N/C(Sc2ccccc2)=C(/C(Cl)=C(Cl)Cl)[N+](=O)[O-])c1`, the TGI was 37.3 µM in assay [1]; 47.2 µM in assay [2]; 47.6 µM in assay [3]; 34.2 µM in [4]; above 100 µM in assay [5]; above 100 µM in [7]. This compound also had a TGI in assay [8] of 45.8 µM.

As to `COc1ccc(-c2oc3c(OC)c(OC)cc(O)c3c(=O)c2OC)cc1`, the TGI in assay [1], in assay [2], in [3], in assay [4], in assay [6] and in [7] was above 100 µM in each case. Moreover, the TGI in [8] and in assay [9] was above 100 µM in each case.

`O=C1CC(NCc2ccccc2)c2c(Cl)sc(Cl)c21` (configuration not stated): the TGI is 53 µM in assay [1]; above 63 µM in assay [2]; above 100 µM in [3]; above 100 µM in assay [10]; 50.2 µM in assay [4]; 43 µM in assay [5]. Besides, the TGI in assay [6] is above 68.7 µM; in [7], 35.7 µM; in assay [9], 18.3 µM.

As to `O=C(CC(Cl)=C(Cl)Cl)c1ccccc1`, the TGI in assay [1] was 53.6 µM; in [2], 70 µM; in assay [3], above 100 µM; in assay [10], 43.7 µM; in [4] it was above 100 µM; in [5] it was above 100 µM. Besides, the TGI in assay [6] is above 100 µM; in assay [9], 69.6 µM.

Turning to `O=CN1CCN(C(=O)c2ccc(Cl)c(Cl)c2)C1=S`, the TGI in assay [1] worked out at 28.1 µM; in assay [2] it was 31.7 µM; in [3] it was 32.9 µM; in [4] it was 39.3 µM; in assay [5], 31.9 µM; in [6], 30.1 µM. In addition, the TGI in [7] worked out at 32.7 µM; in assay [9] it was 28.7 µM.

For the compound `CC1=CC2c3cccc4[nH]cc(c34)CC2N(C)C1` (configuration not stated), the TGI in assay [1] is above 100 µM; in assay [2], above 100 µM; in [3], above 100 µM; in [4], above 100 µM; in assay [7], 86 µM; in assay [9] it was above 100 µM.

Take `CC(C)NC(=O)OCc1c2c(n(C)c1COC(=O)NC(C)C)-c1ccccc1CC2`: the TGI in [1] came out at 25.5 µM; in [2], 29.7 µM; in [3], 42.6 µM; in [4] it was 28.8 µM; in assay [7], 26.3 µM; in assay [9], 18.1 µM.

As to `CCOc1cc2c(c(OCC)c1O)CC[C@@H]1[C@@H]2CC[C@]2(C)[C@@H](O)CC[C@@H]12`, the TGI in assay [1] is 32.1 µM; in assay [3], 57.5 µM; in assay [10] it was 28 µM; in assay [4], 52.1 µM; in [6], above 100 µM; in assay [8], 1.58 µM. The TGI in [9] amounted to 23.1 µM.

As for `CCn1cnnc1-c1nsc2ccccc12`, the TGI in [2], in assay [10], in [4], in assay [6] and in assay [7] was above 100 µM each time.

Turning to `CNc1nc(C(N)=O)c(N)s1`, the TGI in assay [1], in assay [2], in assay [3], in assay [4], in assay [5] and in assay [6] was above 100 µM throughout. In addition, the TGI in [8] and in [9] was above 100 µM each time.

In the case of `CC(C)N(C(C)C)S(=O)(=O)C[C@]12CC[C@H](CC13OCC(CS(=O)(=O)c1ccccc1)O3)C2(C)C` (some centres not stated), the TGI was above 100 µM in [1]; above 80.3 µM in assay [2]; above 100 µM in assay [3]; above 100 µM in assay [4]; above 100 µM in assay [5]; 98.7 µM in assay [6]. The TGI in assay [7], in assay [8] and in assay [9] was above 100 µM throughout.

Take `CC(=O)Nc1cccc(N=NN(C)C)c1`: the TGI in assay [1], in [2], in assay [3], in [4], in [7] and in assay [9] was above 100 µM in each case.

As for `N#Cc1c(-c2ccccc2)c(CN2CCCCC2)c(=O)n2c1[nH]c1ccccc12`, the TGI in assay [1], in [2], in [3], in assay [4], in assay [5] and in assay [6] was above 100 µM in each case. The TGI was above 100 µM in [7], above 100 µM in assay [8] and 61.7 µM in [9].

For `CCC1NC(N=Nc2ccc([N+](=O)[O-])cc2)(P(=O)(OC(C)C)OC(C)C)OC1=O` (configuration not stated), the TGI in assay [1], in assay [2], in [3], in assay [10], in [4] and in assay [6] was above 100 µM in each case. The TGI in assay [7] and in assay [9] was above 100 µM throughout.
